In patent publication US12404268B2, “2-heteroaryl aminoquinazolinone derivative” (Sumitomo Pharma Co., Ltd., priority 2020, dated 2025) one finds inhibition and IC50 data, which are given here for 66 compounds.

For orientation: inhibition means how much of the control response was suppressed.

This assay has as its system neurons induced to differentiate from SCN1A gene deficient human iPS cells. Kind of assay: Test for measuring hyperexcitation suppression activity (spontaneous calcium oscillation frequency). The class given is cell-based. The following applies: Neuron; for inhibition at 100 µM / inhibition at 1 µM / inhibition at 10 µM / inhibition at 0.1 µM: Homo sapiens, read-out: inhibition rate; for IC50: SCN1A gene deficient human iPS cell-derived neurons, FLIPR Calcium 6, FDSS7000EX, read-out: IC50 (50% inhibitory concentration, frequency of spontaneous calcium oscillation). The gist of the method:
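SCN1A-deficient iPS-derived neurons used from day 60 of differentiation, loaded 30 min with Calcium 6 probe. Compounds at final 0.1–100 μM; spontaneous calcium oscillation frequency recorded on FDSS7000EX, with the last 2 of 8 min post-addition expressed relative to the 2 min baseline.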

`Nc1ccc2nc(Nc3cccnc3)n(-c3ccccc3)c(=O)c2c1` [Example 177]: the inhibition at 100 µM stood at 100%.
Regarding `O=c1c2ccccc2nc(Nc2ccc3ocnc3c2)n1-c1ccccc1` [Example 1, 2-(benzo[d]oxazol-5-ylamino)-3-phenylquinazolin-4(3H)-one], the inhibition at 1 µM was 31%.
Regarding `CN1CC2(CC(n3c(Nc4cccnc4)nc4ccccc4c3=O)C2)C1` [Example 83], the inhibition at 10 µM worked out at 96%.
The same measure, in the same setting: next, `COc1ccc(-n2c(Nc3cccnc3)nc3ccc(C#N)cc3c2=O)c(C)c1` [Example 102, 3-(4-methoxy-2-methylphenyl)-4-oxo-2-(pyridin-3-ylamino)-3,4-dihydroquinazoline-6-carbonitrile]: 92%; `Cc1ncccc1Nc1nc2ccc(Cl)cc2c(=O)n1-c1ccccc1` [Example 24]: 54%.
As for `CN1[C@@H]2CC[C@H]1C[C@@H](n1c(Nc3cccnc3)nc3ccccc3c1=O)C2` [Example 79], the inhibition at 1 µM came to 47%.
On the same count and under the same terms, next, `O=c1c2cc(Cl)ccc2nc(Nc2cnccn2)n1-c1ccccc1` [Example 38, 6-chloro-3-phenyl-2-(pyrazin-2-ylamino)quinazolin-4(3H)-one]: 88%.
In the case of `Cc1ccccc1-n1c(Nc2cccnc2)nc2ccc(S(C)(=O)=O)cc2c1=O` [Example 214], the IC50 was over 100 µM.
Same read-out and setting: then `CN(C)c1cncc(-n2c(Nc3cccnc3)nc3ccc(F)cc3c2=O)c1` [Example 215], with over 10 µM.
On to `Cc1ncccc1Nc1nc2ccc(F)cc2c(=O)n1-c1ccccc1` [Example 29], for which the inhibition at 10 µM was determined as 82%.
`O=c1c2cccc(F)c2nc(Nc2cccnc2)n1-c1ccccc1` [Example 115]: the inhibition at 1 µM was determined as 81%.
The same measure, in the same setting: then `O=c1c2cc(F)ccc2nc(Nc2ccc(F)cn2)n1-c1ccccc1` [Example 128], with 69%; and `Cc1ccccc1-n1c(Nc2cccnc2)nc2cc(F)ccc2c1=O` [Example 121], with 28%.
Regarding `Cc1ccccc1C1(n2c(Nc3cccnc3)nc3ccc(F)cc3c2=O)CC1` [Example 167], the inhibition at 10 µM turned out to be 100%.
On to `O=c1c2cc(Cl)ccc2nc(Nc2cnccc2C(F)(F)F)n1-c1ccccc1` [Example 11], for which the IC50 worked out at 5.8 µM.
For the compound `Cc1cccc(-n2c(Nc3cccnc3)nc3ccc(F)cc3c2=O)c1` [Example 106], the inhibition at 0.1 µM turned out to be 17%.
For the compound `O=c1c2ccccc2nc(Nc2ccc3oncc3c2)n1-c1ccccc1` [Example 148], the inhibition at 100 µM is 10%.
With `COc1cccnc1Nc1nc2ccc(F)cc2c(=O)n1-c1ccccc1` [Example 188], the IC50 was over 10 µM.
Take `N#Cc1ccc2nc(Nc3cncc(F)c3)n(-c3ccccc3)c(=O)c2c1` [Example 112, 2-((5-fluoropyridin-3-yl)amino)-4-oxo-3-phenyl-3,4-dihydroquinazoline-6-carbonitrile]: the inhibition at 0.1 µM was determined as 32%.
For `COc1cccc(-n2c(Nc3cccnc3)nc3ccc(F)cc3c2=O)c1` [Example 133], the inhibition at 1 µM came out at 51%.
With `O=c1c2ccccc2nc(Nc2cccc3cnoc23)n1-c1ccccc1` [Example 67], the inhibition at 10 µM came out at 100%.
For `O=c1c2cc(F)ccc2nc(Nc2cccnc2)n1Cc1ccccc1` [Example 151], the inhibition at 10 µM turned out to be 2%.
Consider `Cc1ccc(F)cc1-n1c(Nc2cccnc2)nc2ccc(C#N)cc2c1=O` [Example 104, 3-(5-fluoro-2-methylphenyl)-4-oxo-2-(pyridin-3-ylamino)-3,4-dihydroquinazoline-6-carbonitrile], for which the inhibition at 0.1 µM came out at 29%.
On to `COc1ncccc1Nc1nc2ccc(Cl)cc2c(=O)n1-c1ccccc1` [Example 10, 6-chloro-2-((2-methoxypyridin-3-yl)amino)-3-phenylquinazolin-4(3H)-one], for which the IC50 came out at 0.3 µM.
Take `COc1cc(F)cc2c(=O)n(-c3ccccc3)c(Nc3cccnc3)nc12` [Example 17]: the inhibition at 100 µM came out at 17%.
Take `CN1CCC[C@@H](n2c(Nc3cccnc3)nc3ccc(F)cc3c2=O)C1` [Example 100]: the inhibition at 10 µM was 100%.
Regarding `COc1ccncc1Nc1nc2ccc(Cl)cc2c(=O)n1-c1ccccc1` [Example 23], the inhibition at 1 µM is 61%.
For the compound `O=c1c2cc(Cl)ccc2nc(Nc2cccnn2)n1-c1ccccc1` [Example 9], the IC50 turned out to be 0.6 µM.
On the same count and under the same terms, next, `Cn1cnc(Nc2nc3ccccc3c(=O)n2-c2ccccc2)c1` [Example 231]: over 10 µM.
Consider `CN1CCC(n2c(Nc3cccnc3)nc3ccc(F)cc3c2=O)CC1` [Example 101], for which the inhibition at 10 µM came out at 6%.
On the same count and under the same terms, then `CN1CC[C@H](n2c(Nc3cccnc3)nc3ccc(F)cc3c2=O)C1` [Example 82], with 17%.
For the compound `CN1CCC[C@H](n2c(Nc3cccnc3)nc3ccccc3c2=O)C1` [Example 71], the inhibition at 1 µM amounted to 51%.
As for `O=c1c2cc(F)ncc2nc(Nc2cccnc2)n1CCc1ccccn1` [Example 197], the IC50 is over 10 µM.
Same read-out and setting: then `CC1(n2c(Nc3cccnc3)nc3ccc(F)cc3c2=O)CC1` [Example 196], with over 10 µM.
As to `COc1cncc(Nc2nc3ccc(F)cc3c(=O)n2-c2ccccc2)c1` [Example 28], the inhibition at 1 µM was found to be 32%.
As for `Cc1ccncc1Nc1nc2ccc(Cl)cc2c(=O)n1-c1ccccc1` [Example 147], the IC50 was determined as 2.7 µM.
On to `COc1cccc2c(=O)n(-c3ccccc3)c(Nc3cccnc3)nc12` [Example 116], for which the inhibition at 100 µM was 59%.
Turning to `COc1ccccc1-n1c(Nc2cccnc2)nc2ccc(F)cc2c1=O` [Example 142, 6-fluoro-3-(2-methoxyphenyl)-2-(pyridin-3-ylamino)quinazolin-4(3H)-one], the inhibition at 1 µM was found to be 86%.
Regarding `CN(C)C(=O)c1ccc2nc(Nc3cccnc3)n(-c3ccccc3)c(=O)c2c1` [Example 213], the IC50 is over 100 µM.
As to `O=c1c2cc(F)ccc2nc(Nc2cccnc2)n1-c1cccnc1` [Example 35, 6-fluoro-3-(pyridin-3-yl)-2-(pyridin-3-ylamino)quinazolin-4(3H)-one], the inhibition at 1 µM was 88%.
For the compound `O=c1c2ccccc2nc(Nc2ccc3cnoc3c2)n1-c1ccccc1` [Example 94], the inhibition at 1 µM was determined as 27%.
On the same count and under the same terms, then `Cc1ccc2nc(Nc3cccnc3)n(-c3ccccc3)c(=O)c2c1` [Example 42, 6-methyl-3-phenyl-2-(pyridin-3-ylamino)quinazolin-4(3H)-one], with 98%.
Turning to `O=c1c2cc(F)ccc2nc(Nc2ncccc2F)n1-c1ccccc1` [Example 126], the inhibition at 10 µM came to 80%.
Consider `Cc1cccnc1Nc1nc2ccc(F)cc2c(=O)n1-c1ccccc1` [Example 136], for which the inhibition at 100 µM was 5%.
Take `O=c1c2ccccc2nc(Nc2cccnc2)n1C1CCCCC1` [Example 57]: the inhibition at 1 µM was 21%.
Turning to `C[C@]1(N)CC[C@@H](n2c(Nc3cccnc3)nc3ccc(F)cc3c2=O)CC1` [Example 89], the inhibition at 1 µM stood at 20%.
Turning to `O=c1c2cc(F)ccc2nc(Nc2cccnc2)n1Cc1ccccn1` [Example 157], the inhibition at 10 µM stood at 90%.
The same measure, in the same setting: next, `O=c1c2cc(F)ccc2nc(Nc2cccnc2)n1CCc1ccccc1` [Example 158]: 100%.
Take `CN1[C@@H]2CC[C@H]1C[C@H](n1c(Nc3cccnc3)nc3ccccc3c1=O)C2` [Example 76]: the inhibition at 1 µM stood at 35%.
Turning to `Cc1cc(Nc2nc3ccc(Cl)cc3c(=O)n2-c2ccccc2)ncn1` [Example 46], the inhibition at 100 µM is 34%.
As to `Cc1nc(Nc2nc3ccc(F)cc3c(=O)n2-c2ccccc2)cs1` [Example 174], the inhibition at 1 µM is 78%.
For `Cc1ccccc1-n1c(Nc2cncc(F)c2)nc2ccc(F)cc2c1=O` [Example 4, 6-fluoro-2-((5-fluoropyridin-3-yl)amino)-3-(o-tolyl)quinazolin-4(3H)-one], the inhibition at 0.1 µM worked out at 88%.
Turning to `O=c1c2cc(F)ccc2nc(Nc2cccnc2)n1-c1ccsc1` [Example 161], the inhibition at 1 µM is 35%.
`O=c1c2cc(F)ccc2nc(Nc2ccnc(F)c2)n1-c1ccccc1` [Example 141, 6-fluoro-2-((2-fluoropyridin-4-yl)amino)-3-phenylquinazolin-4(3H)-one]: the inhibition at 1 µM amounted to 97%.
The same measure, in the same setting: then `CN(C)c1cccc(-n2c(Nc3cccnc3)nc3ccc(F)cc3c2=O)c1` [Example 181], with 73%.
For the compound `CO[C@H]1CN(C)CC[C@H]1n1c(Nc2cccnc2)nc2ccc(F)cc2c1=O` [Example 183], the inhibition at 100 µM came to 13%.
Take `Cc1cc(Nc2nc3ccc(F)cc3c(=O)n2-c2ccccc2)ccn1` [Example 139]: the inhibition at 10 µM turned out to be 100%.
Take `O=c1c2cc(Cl)ccc2nc(Nc2cccnc2)n1-c1ccccc1` [Example 31, 6-chloro-3-phenyl-2-(pyridin-3-ylamino)quinazolin-4(3H)-one]: the inhibition at 1 µM was determined as 93%.
Regarding `O=c1c2cc(Cl)ccc2nc(Nc2ncccn2)n1-c1ccccc1` [Example 7], the IC50 came to 6.5 µM.
As to `O=c1c2cccc(Cl)c2nc(Nc2cccnc2)n1-c1ccccc1` [Example 219], the IC50 is over 100 µM.
As for `Cc1nn(C)c(C)c1-n1c(Nc2cccnc2)nc2ccc(F)cc2c1=O` [Example 154], the inhibition at 10 µM amounted to 98%.
For `O=c1c2ccccc2nc(Nc2cccn3cncc23)n1-c1ccccc1` [Example 69, 2-(imidazo[1,5-a]pyridin-8-ylamino)-3-phenylquinazolin-4(3H)-one], the inhibition at 0.1 µM stood at 39%.
On to `Cc1cccc2c(=O)n(-c3ccccc3)c(Nc3cccnc3)nc12` [Example 224], for which the IC50 is over 100 µM.
Regarding `O=c1c2cc(Cl)ccc2nc(Nc2ccncn2)n1-c1ccccc1` [Example 146], the inhibition at 10 µM was 11%.
For the compound `O=c1c2cc(F)ccc2nc(Nc2cccnc2)n1C1(c2ccccc2)CC1` [Example 153], the inhibition at 1 µM turned out to be 99%.
`O=c1c2cc(F)ccc2nc(Nc2ccnnc2)n1-c1ccccc1` [Example 19]: the IC50 came to 2.2 µM.
